Measured values published in paper PMC5714945, “A homologue of the Parkinson’s disease-associated protein LRRK2 undergoes a monomer-dimer transition during GTP turnover” (Nature Communications, 2017).

Key:
CtRoc-COR [1] = molecular target: T1, CtRoc-COR (Chlorobaculum tepidum, UniProt Q8KC98, S928C, form not given); assay: stopped-flow Cy3/Cy5 FRET, monomerization; assay type: binding; conditions: 50 µM or 1 µM GTP, Cy3/Cy5-labelled protein, 25 °C
T1 construct: gene CT1526; Roc-COR domains, residues 412-946, N-terminal His-tag (pProEX), E. coli BL21(DE3); dimer nucleotide-free, about 65 kDa monomer

CtRoco = molecular target: T2, CtRoco (Chlorobaculum tepidum, UniProt Q8KC98); assay: SEC-SAXS, SEC-MALS, native MS, AUC, negative-stain EM (oligomeric shift); assay type: binding; conditions: pre-incubated with 1 mM (SAXS, MALS, EM), pH 7.5, 5 mM MgCl2
T2 construct: gene CT1526; full length, residues 1-1102, N-terminal His-tag (pProEX), E. coli BL21(DE3); dimer nucleotide-free, monomer/dimer equilibrium with GppNHp
T2 sequence (Q8KC98 1-1102): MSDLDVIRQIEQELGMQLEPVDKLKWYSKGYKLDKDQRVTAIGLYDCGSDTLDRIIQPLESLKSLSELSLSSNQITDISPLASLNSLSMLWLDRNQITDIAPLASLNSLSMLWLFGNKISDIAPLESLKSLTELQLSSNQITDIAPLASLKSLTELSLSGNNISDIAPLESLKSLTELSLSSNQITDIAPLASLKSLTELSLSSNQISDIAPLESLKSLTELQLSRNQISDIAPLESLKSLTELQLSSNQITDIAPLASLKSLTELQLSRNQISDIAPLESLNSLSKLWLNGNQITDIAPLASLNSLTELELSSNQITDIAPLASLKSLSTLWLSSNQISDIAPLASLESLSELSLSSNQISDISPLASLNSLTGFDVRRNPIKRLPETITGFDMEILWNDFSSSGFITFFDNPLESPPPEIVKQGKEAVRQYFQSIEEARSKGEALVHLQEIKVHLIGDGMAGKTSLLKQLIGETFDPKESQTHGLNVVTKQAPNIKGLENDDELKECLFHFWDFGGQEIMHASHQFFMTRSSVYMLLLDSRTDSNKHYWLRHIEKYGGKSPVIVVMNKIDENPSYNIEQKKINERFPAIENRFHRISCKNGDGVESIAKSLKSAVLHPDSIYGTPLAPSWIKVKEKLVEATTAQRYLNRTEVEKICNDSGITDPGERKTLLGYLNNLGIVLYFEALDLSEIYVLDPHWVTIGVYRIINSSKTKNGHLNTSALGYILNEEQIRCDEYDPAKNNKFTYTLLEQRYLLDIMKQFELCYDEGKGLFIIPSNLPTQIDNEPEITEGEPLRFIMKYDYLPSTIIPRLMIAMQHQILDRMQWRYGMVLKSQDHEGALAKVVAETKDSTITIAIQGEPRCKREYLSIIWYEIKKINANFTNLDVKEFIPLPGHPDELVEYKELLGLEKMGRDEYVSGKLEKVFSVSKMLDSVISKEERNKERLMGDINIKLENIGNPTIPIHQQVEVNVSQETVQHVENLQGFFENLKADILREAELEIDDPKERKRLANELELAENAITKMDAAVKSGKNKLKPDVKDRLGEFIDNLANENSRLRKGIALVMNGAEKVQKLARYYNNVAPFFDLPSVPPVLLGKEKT

CtRoc-COR [2] = molecular target: T3, CtRoc-COR (Chlorobaculum tepidum, UniProt Q8KC98); assay: SEC-SAXS, SEC-MALS, native MS, SV-AUC (oligomeric shift); assay type: binding; conditions: pre-incubated with 1 mM (SAXS, MALS), pH 7.5, 5 mM MgCl2
T3 construct: gene CT1526; Roc-COR domains, residues 412-946, N-terminal His-tag (pProEX), E. coli BL21(DE3); dimer nucleotide-free, about 65 kDa monomer
T3 sequence (Q8KC98 412-946): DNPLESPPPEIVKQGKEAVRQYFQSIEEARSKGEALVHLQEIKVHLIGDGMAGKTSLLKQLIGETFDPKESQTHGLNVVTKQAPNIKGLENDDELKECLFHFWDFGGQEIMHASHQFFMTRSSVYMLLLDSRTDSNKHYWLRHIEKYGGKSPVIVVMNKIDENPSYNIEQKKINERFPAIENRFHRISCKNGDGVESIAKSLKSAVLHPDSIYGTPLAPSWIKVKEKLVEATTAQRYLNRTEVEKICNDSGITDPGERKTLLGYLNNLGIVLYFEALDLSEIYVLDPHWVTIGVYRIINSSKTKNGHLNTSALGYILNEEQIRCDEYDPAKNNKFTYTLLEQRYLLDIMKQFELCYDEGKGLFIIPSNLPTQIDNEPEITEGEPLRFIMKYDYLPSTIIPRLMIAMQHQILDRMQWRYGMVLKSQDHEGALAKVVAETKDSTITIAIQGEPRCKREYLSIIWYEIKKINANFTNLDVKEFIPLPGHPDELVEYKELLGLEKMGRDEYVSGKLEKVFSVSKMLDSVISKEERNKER

[3] = molecular target: the molecule itself; assay: cell-based or functional assay
[4] = molecular target: the molecule itself; assay: SEC-MALS; nucleotide-free protein; 10 µl of 8 mg ml^-1 injected on a Bio SEC-3 column; buffer as for SEC-SAXS

T1 sequence (Q8KC98 entry or part of it S928C, form open): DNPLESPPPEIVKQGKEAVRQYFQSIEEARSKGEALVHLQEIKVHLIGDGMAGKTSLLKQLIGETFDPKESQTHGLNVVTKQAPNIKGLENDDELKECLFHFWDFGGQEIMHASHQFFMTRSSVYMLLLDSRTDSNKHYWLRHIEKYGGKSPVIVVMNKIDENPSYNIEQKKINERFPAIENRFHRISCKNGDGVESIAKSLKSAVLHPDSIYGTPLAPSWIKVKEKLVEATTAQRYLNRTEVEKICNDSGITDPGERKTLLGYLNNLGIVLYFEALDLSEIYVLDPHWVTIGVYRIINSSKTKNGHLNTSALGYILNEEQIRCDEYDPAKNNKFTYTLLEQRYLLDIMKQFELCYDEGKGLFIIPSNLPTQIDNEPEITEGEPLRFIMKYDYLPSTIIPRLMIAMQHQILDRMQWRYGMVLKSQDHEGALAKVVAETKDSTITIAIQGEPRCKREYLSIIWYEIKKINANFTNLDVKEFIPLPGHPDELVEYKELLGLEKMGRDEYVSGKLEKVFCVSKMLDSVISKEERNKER

Molecule: Nc1nc2c(ncn2[C@@H]2O[C@H](COP(=O)(O)OP(=O)(O)OP(=O)(O)O)[C@@H](O)[C@H]2O)c(=O)[nH]1 [GTP]
- stopped-flow Cy3/Cy5 FRET, monomerization (CtRoc-COR [1]): a fast decrease in FRET signal is observed upon mixing the protein

Molecule: Nc1nc2c(ncn2[C@@H]2O[C@H](COP(=O)(O)OP(=O)(O)NP(=O)(O)O)[C@@H](O)[C@H]2O)c(=O)[nH]1 [GppNHp]
- SEC-SAXS, SEC-MALS, native MS, AUC, negative-stain EM (oligomeric shift) (CtRoco): As for CtRoc-COR this indicates that GppNHp induces monomerization
- SEC-SAXS, SEC-MALS, native MS, SV-AUC (oligomeric shift) (CtRoc-COR [2]): the GTP mimic GppNHp induces monomerization in a concentration dependent manner

B1: CtRoc-COR L487A mutant (domain or fragment, Chlorobium tepidum, UniProt Q8KC98 412-946, looked up)
chain: DNPLESPPPEIVKQGKEAVRQYFQSIEEARSKGEALVHLQEIKVHLIGDGMAGKTSLLKQLIGETFDPKESQTHGANVVTKQAPNIKGLENDDELKECLFHFWDFGGQEIMHASHQFFMTRSSVYMLLLDSRTDSNKHYWLRHIEKYGGKSPVIVVMNKIDENPSYNIEQKKINERFPAIENRFHRISCKNGDGVESIAKSLKSAVLHPDSIYGTPLAPSWIKVKEKLVEATTAQRYLNRTEVEKICNDSGITDPGERKTLLGYLNNLGIVLYFEALDLSEIYVLDPHWVTIGVYRIINSSKTKNGHLNTSALGYILNEEQIRCDEYDPAKNNKFTYTLLEQRYLLDIMKQFELCYDEGKGLFIIPSNLPTQIDNEPEITEGEPLRFIMKYDYLPSTIIPRLMIAMQHQILDRMQWRYGMVLKSQDHEGALAKVVAETKDSTITIAIQGEPRCKREYLSIIWYEIKKINANFTNLDVKEFIPLPGHPDELVEYKELLGLEKMGRDEYVSGKLEKVFSVSKMLDSVISKEERNKER
notes: Roco protein from Chlorobium tepidum, Roc-COR module a.a; 412-946, with L487A (analogue of LRRK2 I1371V); also called L487A CtRoc-COR
- single-turnover GTP hydrolysis rate constant (1 µM protein, 1 µM GTP, GDP formation by reversed-phase HPLC), L487A against wild-type CtRoc-COR [3]: 4 fold decrease
- stoichiometry N [4]: 2
